Holding throughout (assay type): functional, organism-based
The subject of test [1] is Aspergillus flavus. The experiment in a line: Antifungal activity against Aspergillus flavus assessed as inhibition of mycelial growth in dextrose sabouraud broth and Czapek agar at 0.5 mg/ml at 28 +/- 1 degC for 72 hr by dilution technique.
Test [2] deals with Aspergillus flavus. Put plainly: Antifungal activity against Aspergillus flavus assessed as inhibition of mycelial growth in dextrose sabouraud broth and Czapek agar at 0.2 mg/ml at 28 +/- 1 degC for 72 hr by dilution technique.
The test system of test [3] is Aspergillus flavus. Put plainly: Antifungal activity against Aspergillus flavus assessed as inhibition of mycelial growth in dextrose sabouraud broth and Czapek agar at 0.3 mg/ml at 28 +/- 1 degC for 72 hr by dilution technique.
Test [4] deals with Aspergillus flavus. Put plainly: Antifungal activity against Aspergillus flavus assessed as inhibition of mycelial growth in dextrose sabouraud broth and Czapek agar at 0.1 mg/ml at 28 +/- 1 degC for 72 hr by dilution technique.
Test [5] relates to Aspergillus flavus. Put plainly: Antifungal activity against Aspergillus flavus assessed as inhibition of mycelial growth in dextrose sabouraud broth and Czapek agar at 0.4 mg/ml at 28 +/- 1 degC for 72 hr by dilution technique.
Test [6] deals with Aspergillus flavus. The experiment in a line: Antifungal activity against Aspergillus flavus assessed as inhibition of mycelial growth in dextrose sabouraud broth and Czapek agar at 0.6 mg/ml at 28 +/- 1 degC for 72 hr by dilution technique.
Another test concerns Sclerotinia sclerotiorum. Put plainly: Antifungal activity against Sclerotinia sclerotiorum assessed as inhibition of mycelial growth in dextrose sabouraud broth and Czapek agar at 28 +/- 1 degC for 72 hr by dilution technique.

Calls of active or inactive are those of the source. The rule behind the calls is not given here.

For the compound `CC12CCC(CC1)C(C)(C)O2`, the outcome with Aspergillus flavus [1], in the test on Aspergillus flavus [2], in the test on Aspergillus flavus [3], in the test on Aspergillus flavus [4], with Aspergillus flavus [5] and in the test on Aspergillus flavus [6] was inactive.
With `C=CC(C)(CCC=C(C)C)OC(C)=O` (centres undefined) [LINALYL ACETATE], the outcome in the test with Aspergillus flavus [1], with Aspergillus flavus [2], in the test with Aspergillus flavus [3], in the test with Aspergillus flavus [4], with Aspergillus flavus [5] and with Aspergillus flavus [6] was inactive. In addition, the EC50 with Sclerotinia sclerotiorum is on record as 569.62 uL/L.
`CC1=CC(=O)C(C(C)C)CC1` (centres undefined): the result in the test on Aspergillus flavus [1], with Aspergillus flavus [2], with Aspergillus flavus [3], in the test with Aspergillus flavus [4] and in the test on Aspergillus flavus [5] was inactive. The result in the test with Aspergillus flavus [6] was Active.

Values taken from ChEMBL document CHEMBL3046863, “Chemical composition and antifungal activity of essential oil of Chrysactinia mexicana gray” (J Agric Food Chem, 2005).
